# Patent US20100016242A1, “MYOSIN LIGHT CHAIN KINASE INHIBITORS AND METHODS OF USE” (THE UNIVERSITY OF CHICAGO, priority 2004, published 2010)
# Experiments:
# [1] = stability in rat intestinal fluid (LC-MS); type: in vitro ADME
# Protocol: (§1) Peptides administered in vivo are susceptible to protease cleavage, particularly those administered to the intestine. PIK, D-PIK, D-PIK(reversed) and D-PIK(int.) were each incubated with rat intestinal fluid and also with Caco-2 intestinal epithelial cell extracts, which contain a mixture brush border and cytosolic proteases. Luminal intestinal secretions were obtained by flushing isolated rat intestines (duodenum to ileum) with 10 ml of 20 mM of N-2-Hydroxyethylpiperazine-N′-2-ethanesulfonic acid (HEPES) buffer, pH 7.4. Discharged contents were centrifuged to remove solids and the supernatant filtered through a 0.20 μm filter prior to determining total protein content. Confluent Caco-2 cells were rinsed with PBS, lifted by brief trypsin treatment into a small volume of Dulbecco's modified Eagles's medium (DMEM) and washed twice with phosphate buffered saline (PBS). The final cell pellet was re-suspended in a small volume of lysis buffer (50 mM Tris-HCL, 2 mM EDTA, 20% glycerol at pH 7.4) and sonicated on ice. Protein concentrations of isolated intestinal fluid and lysed Caco-2 cell extracts were determined using the Bio-Rad Protein Assay. Peptide inhibitors of MLCK (1 mg/ml) in PBS were mixed with 0.1 mg protein of intestinal secretions or Caco-2 cell lysate on ice and incubated for at 4° C. and 37° C., respectively. At selected times, 100 μl aliquots were withdrawn and mixed with an equal volume of 0.5% TFA (in 50/50 water/acetonitrile) to terminate enzymatic reactions. Samples were centrifuged and supernatants analyzed by LC-MS analysis to determine the cleavage pattern of PIK.
# (§2) Residual peptide content was assessed by liquid chromatography-mass spectrometry (Tiller et al., Anal Bioanal Chem 2003; 377:788-802) and positive ion electrospray ionization.
# The peptides listed in Table 2 (0.1 mg) were incubated with rat intestinal fluid (0.2 mg) at 37° C. for 0.5 min to 6 hours.
# [2] = stability in Caco-2 intestinal epithelial cell extracts (LC-MS); type: in vitro ADME; settings: Caco-2 cell extracts
# Protocol: as §1, with “The final cell pellet was re-suspended in a small volume of lysis buffer (50 mM Tris-HCL, 2 mM EDTA, 20% glycerol at pH 7.4) and sonicated on ice.” left out, “Peptide inhibitors of MLCK (1 mg/ml) in PBS were mixed with 0.1 mg protein of intestinal secretions or Caco-2 cell lysate on ice and incubated for at 4° C. and 37° C., respectively. At selected times, 100 μl aliquots were withdrawn and mixed with an equal volume of 0.5% TFA (in 50/50 water/acetonitrile) to terminate enzymatic reactions.” left out
# as §2
substance,measurement,setting,value
"Ac-RKKYKYRRK-NH2 [PIK, Arg-Lys-Lys-Tyr-Lys-Tyr-Arg-Arg-Lys]",half-life,"[1]; 0.1 mg peptide, rat intestinal fluid (0.2 mg), 37° C.",12 s
same,initial cleavage pattern,[1]; rat intestinal fluid,peptide bonds at the C-terminal sides of K and R residues of PIK were initially cleaved
same,hydrolysis on extended incubation,"[1]; rat intestinal fluid, extended incubations",total hydrolysis
same,cleavage pattern,[2],cleaved PIK across the central palindromic sequence
